Literature values in patent US5916587A, “Transdermal delivery matrix for piroxicam” (Sunkyong Industries Co., Ltd., priority 1992, dated 1999).

Legend:
[1] = system: prostaglandin biosynthesis
[2] = oral use
[3] = orally administered

| Structure (SMILES) | potency as an inhibitor of prostaglandin biosynthesis in vitro ([1]; compared with indomethacin) | side effects [2] | drug excreted in the urine unchanged [3] | metabolism [3] | fold less active than piroxicam inhibiting prostaglandin synthesis ([1]; metabolite vs piroxicam) |
| --- | --- | --- | --- | --- | --- |
| CN1C(C(=O)Nc2ccccn2)=C(O)c2ccccc2S1(=O)=O [Piroxicam, piroxicam] | about equal in potency to indomethacin | gastro-intestinal trouble, peptic ulcer | Less than 5% | metabolized at the first pass route |  |
| Nc1nc2cccc(-c3ccc(CN4CCS(=O)(=O)CC4)cc3)n2n1 [metabolite] |  |  |  |  | at least 1000 times |
